# Experimental data taken from paper PMC5050390, “Transport of Corilagin, Gallic Acid, and Ellagic Acid from Fructus Phyllanthi Tannin Fraction in Caco-2 Cell Monolayers” (Evidence-based Complementary and Alternative Medicine : eCAM, 2016).
# Key:
# Caco-2 cell monolayers = assay: Transport of PTF constituents across Caco-2 cell monolayers (LC-MS quantification); format: in vitro ADME, human; set-up: efflux ratio at 180 min / Papp A→B at 180 min: dose or concentration left out as unconfirmed; settings: for change of transport with tight junction modulators SDS and PLL: SDS and PLL 50 μg/mL; for PDR (ratio of P app BL→AP to P app AP→BL): compound in PTF 1.00 mg/mL; for change of transport (P app) in presence of indomethacin: indomethacin 10 μM (MRPs/OATP inhibitor); for change of transport (P app) in presence of indomethacin / change of transport (P app) in presence of phloridzin / change of transport (P app) in presence of verapamil: PTF 1.00 mg/mL, 120 min; for change of transport (P app) in presence of phloridzin: phloridzin 50 μM (SGLT1 inhibitor); for change of transport (P app) in presence of verapamil: verapamil 100 μM (P-gp inhibitor)
# Experimental: (§1) When cells were cultured to 80% confluence, they were seeded in 12-well Transwell-Clear plates at a density of 1.2 × 10^5 cells/insert. Cells were cultured for 21 days to reach confluence and functional differentiation. Complete medium was replaced every 2 days for the first 2 weeks and daily renewed for the last 7 days. All cells were between passages 35 and 55. […] After 21-day culture, the complete medium was removed and the monolayer was washed three times and balanced with HBSS (previously warmed to 37°C) for 30 min. […] […] All samples were dried with organomation. Before analyzing, the dry samples were dissolved in methanol/water/acetic acid (200 : 200 : 1, v/v/v) and the insoluble substance was eliminated with centrifugation 12000 rpm for 5 min. Protein inhibitors including verapamil (100 μM), indomethacin (10 μM), and phloridzin (50 μM) were employed to investigate the role of different transporters. Epithelial tight junction modulators such as SDS (50 μg/mL) and PLL (50 μg/mL) were used to evaluate the role of paracellular permeability. Hydrophilic marker sodium fluorescein (0.6 mg/mL) was used for the evaluation of the integrity of the cell monolayer. […] The column temperature was 20°C and the injection volume was 20 μL. MS/MS analysis was acquired using an Agilent 6410 triple quadrupole mass spectrometer (Agilent Technologies, CA, USA) equipped with an electrospray ionisation (ESI) in the negative mode. Other analytical conditions included the drying gas temperature of 300°C, the drying gas flow of 11 L/min, the nebulizer pressure of 35 psi, and the capillary voltage of 4 kV. To get the highest abundance, the fragmentor voltage and collision energy were optimized. Data acquisition and processing were accepted by Agilent Mass Hunter workstation software version B.05.00 using multiple reaction monitoring (MRM). The quantification was performed using external standard method. […] Here, dC/dt is the change in concentration on the receiver side over time; V is the volume of the solution in the receiver chamber; A is the surface area of the cell monolayer; C 0 is the initial concentration in the donor chamber. PDR is the ratio of P app(BL→AP) to P app(AP→BL).
# [1] = as above; format: in vitro ADME, human; set-up: efflux ratio at 180 min / Papp A→B at 180 min: dose or concentration left out as unconfirmed; settings: human, Caco-2, 180 min; for efflux ratio at 180 min: read-out: PDR (ratio of P app BL→AP to P app AP→BL)
# Experimental: as §1
# [2] = set-up: method as in earlier work; settings: rats, oral PTF 6 g/kg; cited from earlier work
# Caco-2 cell monolayer = test system: Caco-2 cell monolayer; set-up: method as in PMID 14646189; settings: pure compound; cited from earlier work
# [3] = compound in PTF 1.00 mg/mL, mean ± SEM (n = 3)
change of transport with tight junction modulators SDS and PLL (Caco-2 cell monolayers),absorption transport P app (AP→BL) (Caco-2 cell monolayers; compound in PTF),PDR (ratio of P app BL→AP to P app AP→BL) (Caco-2 cell monolayers; 180 min),change of transport (P app) in presence of indomethacin (Caco-2 cell monolayers),change of transport (P app) in presence of phloridzin (Caco-2 cell monolayers),change of transport (P app) in presence of verapamil (Caco-2 cell monolayers),efflux ratio at 180 min [1],"Papp B→A at 180 min [1, 3] [×10⁻⁶ cm/s]","secretion transport P app (BL→AP) (Caco-2 cell monolayers; human, Caco-2, 180 min)","Papp A→B at 180 min, 1 mg/mL [1, 3] [×10⁻⁶ cm/s]",Compound,secretion transport P app (BL→AP) (Caco-2 cell monolayers; compound in PTF),Papp A→B at 180 min ([1]; mean ± SEM (n = 3)) [×10⁻⁶ cm/s],peak concentration (C max) [2],P app of GA across Caco-2 cell monolayer (Caco-2 cell monolayer),"P app of marker across the monolayers (Caco-2 cell monolayers; sodium fluorescein 0.6 mg/mL, monolayer integrity check)"
greatly improved,~10^−7 cm/s,less than 1.5,strongly decreased,strongly decreased,no substantial difference,1.31,0.456 ± 0.01,–,–,O=c1oc2c(O)c(O)cc3c(=O)oc4c(O)c(O)cc1c4c23 [Ellagic acid],~10^−7 cm/s,0.347 ± 0.018,lower than 10.47 μg/mL,–,–
greatly improved,–,more than 1.5,significantly increased,no considerable change,significantly increased,12.5,2.18 ± 0.228,~10^−6 cm/s,0.174 ± 0.019,O=C(O[C@@H]1O[C@@H]2COC(=O)c3cc(O)c(O)c(O)c3-c3c(cc(O)c(O)c3O)C(=O)O[C@H]([C@H]1O)[C@@H]2O)c1cc(O)c(O)c(O)c1 [Corilagin],–,–,lower than 10.47 μg/mL,–,–
–,–,–,–,–,–,–,–,–,–,"O=C([O-])c1ccccc1-c1c2ccc(=O)cc-2oc2cc([O-])ccc12.[Na+].[Na+] [sodium fluorescein, reference compound]",–,–,–,–,3.16 ± 0.25 × 10^−7 cm/s

Compound,change of transport with tight junction modulators SDS and PLL (Caco-2 cell monolayers),absorption transport P app (AP→BL) (Caco-2 cell monolayers; compound in PTF),PDR (ratio of P app BL→AP to P app AP→BL) (Caco-2 cell monolayers; 180 min),change of transport (P app) in presence of indomethacin (Caco-2 cell monolayers),change of transport (P app) in presence of phloridzin (Caco-2 cell monolayers),change of transport (P app) in presence of verapamil (Caco-2 cell monolayers),efflux ratio at 180 min [1],"Papp B→A at 180 min [1, 3] [×10⁻⁶ cm/s]","secretion transport P app (BL→AP) (Caco-2 cell monolayers; human, Caco-2, 180 min)","Papp A→B at 180 min, 1 mg/mL [1, 3] [×10⁻⁶ cm/s]",secretion transport P app (BL→AP) (Caco-2 cell monolayers; compound in PTF),Papp A→B at 180 min ([1]; mean ± SEM (n = 3)) [×10⁻⁶ cm/s],peak concentration (C max) [2],P app of GA across Caco-2 cell monolayer (Caco-2 cell monolayer),"P app of marker across the monolayers (Caco-2 cell monolayers; sodium fluorescein 0.6 mg/mL, monolayer integrity check)"
O=C(O)c1cc(O)c(O)c(O)c1 [Gallic acid],greatly improved,–,more than 1.5,significantly increased,no considerable change,significantly increased,4.17,0.1 ± 0.009,–,–,~10^−7 cm/s,0.024 ± 0.004,lower than 10.47 μg/mL,about 0.20 × 10^−6 cm/s,–
